Results reported in ChEMBL document CHEMBL3046652, “Photodimerization of heteroaryl chalcones: comparative antimicrobial activities of chalcones and their photoproducts” (2012).
≈ marks a conversion by molar mass, not a printed value.

How the values were obtained:
Format in all cases: functional
Pseudomonas aeruginosa [1] = assay: Antimicrobial activity against Pseudomonas aeruginosa by disk diffusion method
Pseudomonas aeruginosa [2] = assay: Antimicrobial activity against Pseudomonas aeruginosa at 10 ug/disk by disk diffusion method; conditions: read-out: DIZ
Salmonella typhi [3] = assay: Antimicrobial activity against Salmonella enterica subsp. enterica serovar Typhi at 10 ug/disk by disk diffusion method; conditions: read-out: DIZ
Aspergillus niger [4] = assay: Antimicrobial activity against Aspergillus niger at 10 ug/disk by disk diffusion method; conditions: read-out: DIZ
Priestia megaterium [5] = assay: Antimicrobial activity against Bacillus megaterium by disk diffusion method
Escherichia coli [6] = assay: Antimicrobial activity against Escherichia coli at 10 ug/disk by disk diffusion method; conditions: read-out: DIZ
Fusarium verticillioides [7] = assay: Antimicrobial activity against Fusarium verticillioides at 20 ug/disk by disk diffusion method; conditions: read-out: DIZ
Citrobacter freundii [8] = assay: Antimicrobial activity against Citrobacter freundii by disk diffusion method
Salmonella typhi [9] = assay: Antimicrobial activity against Salmonella enterica subsp. enterica serovar Typhi by disk diffusion method
Micrococcus luteus [10] = assay: Antimicrobial activity against Micrococcus luteus at 10 ug/disc by disk diffusion method; conditions: read-out: DIZ
Serratia marcescens [11] = assay: Antimicrobial activity against Serratia marcescens by disk diffusion method
Escherichia coli [12] = assay: Antimicrobial activity against Escherichia coli by disk diffusion method
Citrobacter freundii [13] = assay: Antimicrobial activity against Citrobacter freundii at 10 ug/disk by disk diffusion method; conditions: read-out: DIZ
Aspergillus oryzae [14] = assay: Antimicrobial activity against Aspergillus oryzae at 10 ug/disk by disk diffusion method; conditions: read-out: DIZ
Klebsiella pneumoniae [15] = assay: Antimicrobial activity against Klebsiella pneumoniae at 10 ug/disk by disk diffusion method; conditions: read-out: DIZ
Proteus vulgaris [16] = assay: Antimicrobial activity against Proteus vulgaris by disk diffusion method
Priestia megaterium [17] = assay: Antimicrobial activity against Bacillus megaterium at 10 ug/disk by disk diffusion method; conditions: read-out: DIZ
Micrococcus luteus [18] = assay: Antimicrobial activity against Micrococcus luteus by disk diffusion method
Candida albicans [19] = assay: Antimicrobial activity against Candida albicans at 20 ug/disk by disk diffusion method; conditions: read-out: DIZ
Proteus vulgaris [20] = assay: Antimicrobial activity against Proteus vulgaris at 10 ug/disk by disk diffusion method; conditions: read-out: DIZ
Serratia marcescens [21] = assay: Antimicrobial activity against Serratia marcescens at 10 ug/disk by disk diffusion method; conditions: read-out: DIZ
Klebsiella pneumoniae [22] = assay: Antimicrobial activity against Klebsiella pneumoniae by disk diffusion method
Candida albicans [23] = assay: Antimicrobial activity against Candida albicans at 10 ug/disk by disk diffusion method; conditions: read-out: DIZ
Aspergillus oryzae [24] = assay: Antimicrobial activity against Aspergillus oryzae at 30 ug/disk by disk diffusion method; conditions: read-out: DIZ
Candida albicans [25] = assay: Antimicrobial activity against Candida albicans at 10 to 60 ug/disk by disk diffusion method
Priestia megaterium [26] = assay: Antimicrobial activity against Bacillus megaterium at 10 to 60 ug/disk by disk diffusion method
Salmonella typhi [27] = assay: Antimicrobial activity against Salmonella enterica subsp. enterica serovar Typhi at 10 to 60 ug/disk by disk diffusion method
Micrococcus luteus [28] = assay: Antimicrobial activity against Micrococcus luteus at 10 to 60 ug/disc by disk diffusion method
Aspergillus niger [29] = assay: Antimicrobial activity against Aspergillus niger at 10 to 60 ug/disk by disk diffusion method
Citrobacter freundii [30] = assay: Antimicrobial activity against Citrobacter freundii at 10 to 60 ug/disk by disk diffusion method
Aspergillus oryzae [31] = assay: Antimicrobial activity against Aspergillus oryzae at 10 to 60 ug/disk by disk diffusion method
Pseudomonas aeruginosa [32] = assay: Antimicrobial activity against Pseudomonas aeruginosa at 10 to 60 ug/disk by disk diffusion method
Fusarium verticillioides [33] = assay: Antimicrobial activity against Fusarium verticillioides at 10 to 60 ug/disk by disk diffusion method
Klebsiella pneumoniae [34] = assay: Antimicrobial activity against Klebsiella pneumoniae at 10 to 60 ug/disk by disk diffusion method
Proteus vulgaris [35] = assay: Antimicrobial activity against Proteus vulgaris at 10 to 60 ug/disk by disk diffusion method
Escherichia coli [36] = assay: Antimicrobial activity against Escherichia coli at 10 to 60 ug/disk by disk diffusion method
Serratia marcescens [37] = assay: Antimicrobial activity against Serratia marcescens at 10 to 60 ug/disk by disk diffusion method

| Structure (SMILES) | MIC (Pseudomonas aeruginosa [1]) | zone of inhibition at 10 µg/disc (Pseudomonas aeruginosa [2]) | zone of inhibition at 10 µg/disc (Salmonella typhi [3]) | zone of inhibition at 10 µg/disc (Aspergillus niger [4]) | MIC (Priestia megaterium [5]) | zone of inhibition at 10 µg/disc (Escherichia coli [6]) | zone of inhibition at 20 µg/disc (Fusarium verticillioides [7]) | diameter of the inhibition zone (DIZ) (Candida albicans [25]) | diameter of the inhibition zone (DIZ) (Priestia megaterium [26]) | diameter of the inhibition zone (DIZ) (Salmonella typhi [27]) | diameter of the inhibition zone (DIZ) (Micrococcus luteus [28]) | diameter of the inhibition zone (DIZ) (Aspergillus niger [29]) | diameter of the inhibition zone (DIZ) (Citrobacter freundii [30]) | diameter of the inhibition zone (DIZ) (Aspergillus oryzae [31]) | diameter of the inhibition zone (DIZ) (Pseudomonas aeruginosa [32]) | diameter of the inhibition zone (DIZ) (Fusarium verticillioides [33]) | diameter of the inhibition zone (DIZ) (Klebsiella pneumoniae [34]) | diameter of the inhibition zone (DIZ) (Proteus vulgaris [35]) | diameter of the inhibition zone (DIZ) (Escherichia coli [36]) | diameter of the inhibition zone (DIZ) (Serratia marcescens [37]) | further results |
| --- | --- | --- | --- | --- | --- | --- | --- | --- | --- | --- | --- | --- | --- | --- | --- | --- | --- | --- | --- | --- | --- |
| O=C(/C=C/c1ccccc1)c1ccco1 | 10 µg/mL (≈ 50.4 µM) | 5 mm | 5 mm | 11 mm | 10 µg/mL (≈ 50.4 µM) | 5 mm | 7 mm |  |  |  |  |  |  |  |  |  |  |  |  |  | MIC (Citrobacter freundii [8]): 10 µg/mL (≈ 50.4 µM); MIC (Salmonella typhi [9]): 10 µg/mL (≈ 50.4 µM); zone of inhibition at 10 µg/disc (Micrococcus luteus [10]): 11 mm; MIC (Serratia marcescens [11]): 10 µg/mL (≈ 50.4 µM); MIC (Escherichia coli [12]): 10 µg/mL (≈ 50.4 µM); zone of inhibition at 10 µg/disc (Citrobacter freundii [13]): 13 mm; zone of inhibition at 10 µg/disc (Aspergillus oryzae [14]): 8 mm; zone of inhibition at 10 µg/disc (Klebsiella pneumoniae [15]): 7 mm; MIC (Proteus vulgaris [16]): 10 µg/mL (≈ 50.4 µM); zone of inhibition at 10 µg/disc (Priestia megaterium [17]): 11 mm; MIC (Micrococcus luteus [18]): 10 µg/mL (≈ 50.4 µM); zone of inhibition at 20 µg/disc (Candida albicans [19]): 7 mm; zone of inhibition at 10 µg/disc (Proteus vulgaris [20]): 8 mm; zone of inhibition at 10 µg/disc (Serratia marcescens [21]): 5 mm; MIC (Klebsiella pneumoniae [22]): 10 µg/mL (≈ 50.4 µM) |
| O=C(/C=C/c1ccco1)c1ccccc1 | 10 µg/mL (≈ 50.4 µM) | 5 mm | 5 mm | 8 mm | 20 µg/mL (≈ 101 µM) | 5 mm | 7 mm |  |  |  |  |  |  |  |  |  |  |  |  |  | zone of inhibition at 10 µg/disc (Candida albicans [23]): 9 mm; MIC (Citrobacter freundii [8]): 10 µg/mL (≈ 50.4 µM); MIC (Salmonella typhi [9]): 10 µg/mL (≈ 50.4 µM); zone of inhibition at 30 µg/disc (Aspergillus oryzae [24]): 8 mm; zone of inhibition at 10 µg/disc (Micrococcus luteus [10]): 9 mm; MIC (Serratia marcescens [11]): 10 µg/mL (≈ 50.4 µM); MIC (Escherichia coli [12]): 10 µg/mL (≈ 50.4 µM); zone of inhibition at 10 µg/disc (Citrobacter freundii [13]): 7 mm; zone of inhibition at 10 µg/disc (Klebsiella pneumoniae [15]): 6 mm; MIC (Proteus vulgaris [16]): 20 µg/mL (≈ 101 µM); zone of inhibition at 10 µg/disc (Priestia megaterium [17]): 9 mm; MIC (Micrococcus luteus [18]): 10 µg/mL (≈ 50.4 µM); zone of inhibition at 10 µg/disc (Proteus vulgaris [20]): 9 mm; zone of inhibition at 10 µg/disc (Serratia marcescens [21]): 7 mm; MIC (Klebsiella pneumoniae [22]): 10 µg/mL (≈ 50.4 µM) |
| O=C(c1ccco1)C1C(C(=O)c2ccco2)C(c2ccccc2)C1c1ccccc1 (stereo not drawn) |  |  |  |  |  |  |  | 5 mm | 5 mm | 5 mm | 7 mm | 5 mm | 5 mm | 5 mm | 5 mm | 6 mm | 5 mm | 7 mm | 5 mm | 5 mm |  |
| O=C(c1ccc[nH]1)C1C(C(=O)c2ccc[nH]2)C(c2ccccc2)C1c1ccccc1 (stereo not drawn) |  |  |  |  |  |  |  | 5 mm | 5 mm | 5 mm | 5 mm | 5 mm | 5 mm | 5 mm | 6 mm | 5 mm | 5 mm | 5 mm | 5 mm | 5 mm |  |
| O=C(c1cccs1)C1C(C(=O)c2cccs2)C(c2ccccc2)C1c1ccccc1 (stereo not drawn) |  |  |  |  |  |  |  | 5 mm | 9 mm | 6 mm | 7 mm | 5 mm | 5 mm | 5 mm | 5 mm | 5 mm | 5 mm | 5 mm | 5 mm | 5 mm |  |
